Test results as given in US10457709B2, “Antimicrobial peptides, their variants and uses” (priority 2015, dated 2019).
Where two headings read alike, the source gives them in different places. Square brackets hold non-standard residues; d marks the D form. Peptide text beside a SMILES is read from it.

Assays:
[1] = system: Enterobacter cloacae clinical strains; format: cell-based; design: Minimum inhibitory concentration: unit: μg/ml; settings: microdilution, Muller Hinton broth-cation adjusted, 0.02% BSA, 0.2% acetic acid
How it was run: (§1)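 Broth microdilution in Mueller Hinton broth, inoculum adjusted to 5.0×10^5 cfu/ml, peptides tested at 0.125 to 128 μg/ml, 37° C for 20 to 24 hours. Yeast assays were run in potato dextrose broth. MIC was taken as the lowest concentration with no visible growth.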

[2] = system: Staphylococcus aureus clinical strains; format: cell-based; design: Minimum inhibitory concentration: unit: μg/ml; settings: microdilution, Muller Hinton broth-cation adjusted, 0.02% BSA, 0.2% acetic acid
How it was run: as §1

[3] = system: Serratia marcescens clinical strains; format: cell-based; design: Minimum inhibitory concentration: unit: μg/ml; settings: microdilution, Muller Hinton broth-cation adjusted, 0.02% BSA, 0.2% acetic acid
How it was run: as §1

[4] = system: Streptococcus pneumoniae clinical strains; format: cell-based; design: Minimum inhibitory concentration: unit: μg/ml; settings: microdilution, Muller Hinton broth-cation adjusted, 0.02% BSA, 0.2% acetic acid
How it was run: as §1

[5] = system: Proteus mirabilis clinical strains; format: cell-based; design: Minimum inhibitory concentration: unit: μg/ml; settings: microdilution, Muller Hinton broth-cation adjusted, 0.02% BSA, 0.2% acetic acid
How it was run: as §1

[6] = system: C. parapsilosis clinical strains; test: MIC, clinical yeast strains; format: cell-based, Candida parapsilosis; design: unit: µg/ml
How it was run: as §1

[7] = system: C. glabrata clinical strains; test: MIC, clinical yeast strains; format: cell-based, Candida glabrata; design: unit: µg/ml
How it was run: as §1

[8] = system: Pseudomonas aeruginosa clinical strains; format: cell-based; settings: microdilution, Muller Hinton broth-cation adjusted, 0.02% BSA, 0.2% acetic acid
How it was run: as §1

[9] = system: Escherichia coli clinical strains; format: cell-based; settings: microdilution, Muller Hinton broth-cation adjusted, 0.02% BSA, 0.2% acetic acid
How it was run: as §1

[10] = system: Klebsiella pneumoniae clinical strains; format: cell-based; settings: microdilution, Muller Hinton broth-cation adjusted, 0.02% BSA, 0.2% acetic acid
How it was run: as §1

[11] = system: C. quillermondiae clinical strains; test: MIC, clinical yeast strains; format: cell-based, Candida quillermondiae; design: unit: μg/ml; settings: C. quillermondiae clinical yeast strain 1
How it was run: as §1

[12] = system: Candida albicans clinical strains; test: MIC, clinical yeast strains; format: cell-based; design: unit: μg/ml
How it was run: as §1

CC(C)C[C@@H](NC(=O)[C@H](N)CCCCN)C(=O)N[C@H](CCCCN)C(=O)N[C@H](Cc1c[nH]c2ccccc12)C(=O)N[C@H](Cc1ccccc1)C(=O)N[C@H](Cc1c[nH]c2ccccc12)C(=O)N[C@H](CC(C)C)C(=O)N[C@H](Cc1ccccc1)C(=O)N[C@H](CCCCN)C(=O)N[C@H](CCCCN)C(=O)N[C@H](CCCNC(=N)N)C(=O)O [Chain311D] (H-[dK][dL][dK][dW][dF][dW][dL][dF][dK][dK][dR]-OH)
Minimum inhibitory concentration ([1]; Enterobacter cloacae clinical strain 1): 4
Minimum inhibitory concentration ([1]; Enterobacter cloacae clinical strain 2): 4
Minimum inhibitory concentration ([1]; Enterobacter cloacae clinical strain 3): 4
Minimum inhibitory concentration ([1]; Enterobacter cloacae clinical strain 4): 4
Minimum inhibitory concentration ([1]; Enterobacter cloacae clinical strain 5): 2
Minimum inhibitory concentration ([2]; Staphylococcus aureus clinical strain 1): 1
Minimum inhibitory concentration ([2]; Staphylococcus aureus clinical strain 2): 1
Minimum inhibitory concentration ([2]; Staphylococcus aureus clinical strain 3): 1
Minimum inhibitory concentration ([2]; Staphylococcus aureus clinical strain 4): 1
Minimum inhibitory concentration ([2]; Staphylococcus aureus clinical strain 5): 1
Minimum inhibitory concentration ([3]; Serratia marcescens clinical strain 1): >128
Minimum inhibitory concentration ([3]; Serratia marcescens clinical strain 2): >128
Minimum inhibitory concentration ([3]; Serratia marcescens clinical strain 3): >128
Minimum inhibitory concentration ([3]; Serratia marcescens clinical strain 4): >128
Minimum inhibitory concentration ([3]; Serratia marcescens clinical strain 5): >128
Minimum inhibitory concentration ([4]; Streptococcus pneumoniae clinical strain 1): 16
Minimum inhibitory concentration ([4]; Streptococcus pneumoniae clinical strain 2): 8
Minimum inhibitory concentration ([4]; Streptococcus pneumoniae clinical strain 3): 16
Minimum inhibitory concentration ([4]; Streptococcus pneumoniae clinical strain 4): 4
Minimum inhibitory concentration ([4]; Streptococcus pneumoniae clinical strain 5): 8
Minimum inhibitory concentration ([5]; Proteus mirabilis clinical strain 1): >128
Minimum inhibitory concentration ([5]; Proteus mirabilis clinical strain 2): 128
Minimum inhibitory concentration ([5]; Proteus mirabilis clinical strain 3): 128
Minimum inhibitory concentration ([5]; Proteus mirabilis clinical strain 4): >128
Minimum inhibitory concentration ([5]; Proteus mirabilis clinical strain 5): >128
Minimum inhibitory concentration ([6]; C. parapsilosis clinical yeast strain 1): 16
Minimum inhibitory concentration ([6]; C. parapsilosis clinical yeast strain 2): 8
Minimum inhibitory concentration ([6]; C. parapsilosis clinical yeast strain 3): 8
Minimum inhibitory concentration ([6]; C. parapsilosis clinical yeast strain 4): 8
Minimum inhibitory concentration ([7]; C. glabrata clinical yeast strain 1): 16
Minimum inhibitory concentration ([7]; C. glabrata clinical yeast strain 2): 16
Minimum inhibitory concentration ([7]; C. glabrata clinical yeast strain 3): 8
Minimum inhibitory concentration ([7]; C. glabrata clinical yeast strain 4): 64
Minimum inhibitory concentration ([8]; Pseudomonas aeruginosa clinical strain 1): 16
Minimum inhibitory concentration ([8]; Pseudomonas aeruginosa clinical strain 2): 8
Minimum inhibitory concentration ([8]; Pseudomonas aeruginosa clinical strain 3): 16
Minimum inhibitory concentration ([8]; Pseudomonas aeruginosa clinical strain 4): 8
Minimum inhibitory concentration ([8]; Pseudomonas aeruginosa clinical strain 5): 4
Minimum inhibitory concentration ([9]; Escherichia coli clinical strain 1): 2
Minimum inhibitory concentration ([9]; Escherichia coli clinical strain 2): 2
Minimum inhibitory concentration ([9]; Escherichia coli clinical strain 3): 1
Minimum inhibitory concentration ([9]; Escherichia coli clinical strain 4): 0.5
Minimum inhibitory concentration ([9]; Escherichia coli clinical strain 5): 1
Minimum inhibitory concentration ([10]; Klebsiella pneumoniae clinical strain 1): 8
Minimum inhibitory concentration ([10]; Klebsiella pneumoniae clinical strain 2): 8
Minimum inhibitory concentration ([10]; Klebsiella pneumoniae clinical strain 3): 4
Minimum inhibitory concentration ([10]; Klebsiella pneumoniae clinical strain 4): 8
Minimum inhibitory concentration ([10]; Klebsiella pneumoniae clinical strain 5): 4
Minimum inhibitory concentration [11]: 4
Minimum inhibitory concentration ([12]; Candida albicans clinical yeast strain 1): 8
Minimum inhibitory concentration ([12]; Candida albicans clinical yeast strain 2): 8
Minimum inhibitory concentration ([12]; Candida albicans clinical yeast strain 3): 8
Minimum inhibitory concentration ([12]; Candida albicans clinical yeast strain 4): 16
Minimum inhibitory concentration ([12]; Candida albicans clinical yeast strain 5): 16
